Consider 53 compounds from PubChem BioAssay AID1996.

In brackets after ≈: the same amount, converted by molar mass.

The conditions of the data set: buffer; pH 7.4; 200.0 µM.
As for `O=C(Nc1cccc(C(F)(F)F)c1)c1cncs1`, the solubility (kinetic) (in general, the concentration staying in solution when a stock, usually in DMSO, is diluted into the medium) was above 40.8 µg/mL.

In the case of `Cc1nnc(N)s1`, the solubility (kinetic) was above 17.3 µg/mL.

`C=CCN1CN(CCc2ccccc2)CNC1=S` gave a solubility (kinetic) above 39.2 µg/mL.

The compound `Cc1ccc(S(=O)(=O)CC(=O)Nc2ccc(Cl)cn2)cc1` had a kinetic solubility of 5.4 µg/mL (≈ 16.6 µM).

The compound `Cc1ccnc(NC(=O)c2cccc(OC(F)F)c2)n1` registered a kinetic solubility of 39.9 µg/mL (≈ 143 µM).

As to `Cc1ccnc(SC2CC(=O)N(c3ccc(Cl)cc3)C2=O)n1` (stereo not drawn), the solubility (kinetic) is above 50.1 µg/mL.

In turn, `O=C(Nc1ccc2c(c1)OCO2)C1CC1` had a kinetic solubility above 30.8 µg/mL.

On to `O=C(/C=C/c1cc(Br)ccc1F)OCC(=O)N1CCOCC1`, for which the kinetic solubility was above 55.8 µg/mL.

The compound `Cc1cc(NCCCOC(C)C)n2c(nc3ccccc32)c1C#N` yielded a solubility (kinetic) of 1.4 µg/mL (≈ 4.34 µM).

In the case of `COc1ccc(CNC(=O)COc2cccnc2[N+](=O)[O-])cc1`, the kinetic solubility is above 47.6 µg/mL.

`CCSc1nc2sc3c(c2c(=O)n1-c1ccccc1C)CCN(C)C3` returned a kinetic solubility of 53.7 µg/mL (≈ 145 µM).

`O=C(C(=O)N1CCN(c2ccccc2)CC1)c1c[nH]c2ccccc12` came in with a kinetic solubility of 2 µg/mL (≈ 6 µM).

Compound `CCOC(=O)C1=C(C)NC(C)=C(C(=O)OCC)C1c1ccc(C)o1` had a kinetic solubility of 1.8 µg/mL (≈ 5.4 µM). The solubility kinetic values of the last two compounds are within 1.5-fold of each other.

In turn, `CCN(CC(=O)NCCN1CCOCC1)S(=O)(=O)c1ccc(F)cc1` registered a kinetic solubility above 56 µg/mL.

For the compound `Cc1ccc(C(=O)NC(C)c2ccc(S(N)(=O)=O)cc2)s1` (stereo not drawn), the solubility (kinetic) is above 48.7 µg/mL.

The compound `Cc1cccc(CC(=O)NCCN2CCCCC2)c1` had a kinetic solubility of 32.5 µg/mL (≈ 125 µM).

In turn, `CC(NC(=O)CN1CCN(C(=O)c2cccs2)CC1)c1ccc(F)cc1F` (stereo not drawn) came in with a solubility (kinetic) above 59 µg/mL.

In turn, `CC1CCN(C(=O)c2cc(-c3ccco3)on2)CC1` registered a solubility (kinetic) of 37.7 µg/mL (≈ 145 µM).

With `CNC(=O)c1c(O)c2cccc3c2n(c1=O)CCC3`, the kinetic solubility came to 2.6 µg/mL (≈ 10.1 µM).

The compound `O=C(COC(=O)c1ccc(O)cc1)Nc1ccc2c(c1)OCCO2` displayed a kinetic solubility of 21.9 µg/mL (≈ 66.5 µM). This solubility kinetic is about 8.4-fold higher than that of the compound before.

In turn, `C=CCN(CC=C)C(=O)C[n+]1ccc(C(N)=O)cc1.[Cl-]` displayed a solubility (kinetic) above 44.4 µg/mL.

The compound `CC(C)=CCN1CCN(Cc2cc3ccccc3[nH]2)CC1CCO` (stereo not drawn) had a solubility (kinetic) of 45.8 µg/mL (≈ 140 µM).

As for `CC1(c2ccc(OC(F)F)cc2)NC(=O)N(CC(=O)NC2CCCC2)C1=O` (stereo not drawn), the solubility (kinetic) was above 57.2 µg/mL.

In the case of `Cc1ccc(NC(=O)N2CCCC(C(=O)O)C2)cc1` (stereo not drawn), the kinetic solubility was above 39.3 µg/mL.

In turn, `N#Cc1nc(-c2ccccc2)oc1N1CCC(C(N)=O)CC1` registered a solubility (kinetic) of 39.7 µg/mL (≈ 134 µM).

In the case of `CC(C)[C@H](NC(=O)c1ccc([N+](=O)[O-])cc1Cl)C(=O)N1CCN(C/C=C/c2ccccc2)CC1`, the kinetic solubility amounted to 44.3 µg/mL (≈ 91.3 µM). The solubility kinetic values of the last two compounds are within 1.5-fold of each other.

Compound `CC(=O)Nc1ccc(NC(=O)Nc2cccc3ccccc23)cc1` displayed a kinetic solubility of 1.1 µg/mL (≈ 3.44 µM). Compared with the last compound, the solubility kinetic is about 40-fold lower.

With `Cc1ccc(C)c(N2CC(C(=O)Nc3cc(C)on3)CC2=O)c1` (stereo not drawn), the kinetic solubility was 40.3 µg/mL (≈ 129 µM).

Compound `COCCCNC(=O)C(=O)Nc1cc2c3c(c1)CCN3C(=O)CC2` had a solubility (kinetic) of 49.4 µg/mL (≈ 149 µM).

`O=C(O)Cc1ccc(NS(=O)(=O)c2ccc3ccccc3c2)cc1` gave a solubility (kinetic) above 51.2 µg/mL.

As for `Cc1c(C=Nc2ccc(S(=O)(=O)N(C)C)cc2)c(O)[nH]c(=O)c1C#N`, the solubility (kinetic) came out at 24.7 µg/mL (≈ 68.5 µM).

For the compound `NC(=O)COc1ccccc1`, the solubility (kinetic) is 21 µg/mL (≈ 139 µM). The solubility kinetic values of the last two compounds are within 1.5-fold of each other.

The compound `COC(CNC(=O)c1ccc2nc3ccccc3c(=O)n2c1)OC` had a kinetic solubility of 49 µg/mL (≈ 150 µM). Compared with the last compound, the solubility kinetic is about 2.3-fold higher.

As for `CCOC(=O)/C(C#N)=C\c1cccnc1`, the solubility (kinetic) is above 30.3 µg/mL.

As to `O=C(CCc1nc2ccccc2c(=O)[nH]1)N1CCN(c2ccccc2Cl)CC1`, the solubility (kinetic) was determined as 3.2 µg/mL (≈ 8.06 µM).

Compound `O=C(Nc1cc(Cl)ncn1)c1ccccc1` displayed a solubility (kinetic) of 34.2 µg/mL (≈ 146 µM).

Regarding `COc1ccc(C(=O)O)cc1S(=O)(=O)N1CCSCC1`, the solubility (kinetic) is above 47.6 µg/mL.

As for `COC(=O)c1cnc(N2CCOCC2)nc1C(F)(F)F`, the solubility (kinetic) stood at 35.3 µg/mL (≈ 121 µM).

In turn, `CCOc1ccccc1NC(=O)C1CCCN(S(C)(=O)=O)C1` (stereo not drawn) registered a kinetic solubility above 49 µg/mL.

Consider `COc1ccc(CCC(=O)Nc2ccc(C(=O)c3ccncc3)cc2)cc1`, for which the solubility (kinetic) is 3.8 µg/mL (≈ 10.5 µM).

In the case of `Cn1cccc1C(=O)OCc1ccc(F)cc1`, the kinetic solubility is below 0.5 µg/mL.

In turn, `c1ccc(-c2nccnc2-c2ccccc2)cc1` gave a kinetic solubility of 21.5 µg/mL (≈ 92.6 µM).

`Oc1ccc(Br)cc1C1Nc2ccccc2S1` (stereo not drawn) registered a kinetic solubility below 0.7 µg/mL.

The compound `O=C(Nc1nccs1)c1ccccc1Br` registered a solubility (kinetic) of 6.2 µg/mL (≈ 21.9 µM).

`Nc1ccc(-c2ncc(-c3ccccc3)o2)cc1` registered a kinetic solubility of 4.3 µg/mL (≈ 18.2 µM). The solubility kinetic values of the last two compounds are within 1.5-fold of each other.

`CC1CN(C(=O)Cn2c(=O)oc3ccccc32)CC(C)O1` (stereo not drawn) showed a solubility (kinetic) of 43.1 µg/mL (≈ 148 µM).

Consider `CCc1cccc(NC(=O)C2CCCN2C(=O)Nc2ccc(C)cc2)c1` (stereo not drawn), for which the kinetic solubility was 1.2 µg/mL (≈ 3.41 µM). This solubility kinetic lies about 36-fold lower than the previous one.

In turn, `CC1(C)CC(=O)N(c2cc(Cl)cc(Cl)c2)C(=O)C1` displayed a solubility (kinetic) of 11.7 µg/mL (≈ 40.9 µM).

`Cc1cccc(NC(=O)N2C3CCCC2CC(NC(=O)C2CC2)C3)c1` (stereo not drawn) registered a kinetic solubility of 22.7 µg/mL (≈ 66.5 µM). This solubility kinetic lies about 1.9-fold higher than the previous one.

The compound `CCC(Oc1ccccc1F)C(=O)NCCCn1ccnc1` (stereo not drawn) gave a solubility (kinetic) above 45.8 µg/mL.

`O=C(Nc1ncc([N+](=O)[O-])s1)c1cccs1`: the solubility (kinetic) was determined as 37.2 µg/mL (≈ 146 µM).

Compound `O=C(NCCOc1ccc(Cl)cc1)c1ccc2ccccc2n1` came in with a kinetic solubility of 4 µg/mL (≈ 12.2 µM).

The compound `Cc1ccccc1N(Cc1cc(=O)[nH]c2ccccc12)C(=O)C(C)C` came in with a kinetic solubility of 36 µg/mL (≈ 108 µM). Compared with the last compound, the solubility kinetic is about 9-fold higher.
